Experiments:
Mus musculus [1] = test: Pro-angiogenic activity in Balb/c mouse subcutaneously implanted 4 times with 10 ug/implant compound treated mouse EHS-derived matrigel assessed as FGF2-induced matrigel plug vascularization by measuring increase in hemoglobin level measured after 7 to 10 days by spectrophotometric analysis relative to control; type: functional
Mus musculus [2] = test: Antiangiogenic activity in Balb/c mouse subcutaneously implanted 4 times with 10 ug/implant compound treated mouse EHS-derived matrigel assessed as inhibition of FGF2-induced matrigel plug vascularization by measuring decrease in hemoglobin level measured after 7 to 10 days by spectrophotometric analysis relative to control; type: functional

Row | Structure (SMILES) | fold change (FC) (Mus musculus [1]) | inhibition (INH) (Mus musculus [2]) [%]
1 | O=C(O)Cc1cc(I)c(Oc2ccc(O)cc2)c(I)c1 | 1.6 | –
2 | N[C@@H](Cc1cc(I)c(Oc2ccc(O)c(I)c2)c(I)c1)C(=O)O [LIOTHYRONINE] | 1.4 | –
3 | O=C(O)Cc1cc(I)c(Oc2cc(I)c(O)c(I)c2)c(I)c1 [TETRAC] | – | 50
